The values that follow come from article PMC3522636, “4F Decreases IRF5 Expression and Activation in Hearts of Tight Skin Mice” (PLoS ONE, 2012).

For assay [1], the system named is IRF5. Briefly: Western blot, myocardial IRF5 expression. The conditions noted are these: 4F 1 mg/kg/d, sc. It counts as in vivo, mouse. An excerpt:
(§1) All experimental procedures and protocols involving mice were reviewed and approved by the Institutional Animal Care and Use Committee (IACUC) of the Medical College of Wisconsin (AUA#512). They also conformed to the rules in the Guiding Principles in the Care and Use of Animals published by the American Physiologic Society and the Guide for the Care and Use of Laboratory Animals published by OLAW. Male Tsk^−/+ and C57Bl/6J mice (6–8 weeks of age) were purchased from Jackson Laboratories (Bar Harbor, ME). Three groups of mice were studied; C57Bl/6J, Tsk^−/+, and Tsk^−/+ mice treated with 4F (1 mg/kg/d, sc) as published previously.
Hearts harvested from C57Bl/6J, Tsk^−/+ and 4F-treated Tsk ^−/+ mice were snap-frozen and stored at −80°C for subsequent analysis. Frozen hearts were pulverized in a stainless steel mortar and pestle bathed in liquid nitrogen. The frozen powder was dissolved and homogenized in lysis buffer [MOPS pH 7.0, 20 mM; EGTA 2 mM; EDTA 5mM; NaF 30 mM; Protease Inhibitor Cocktail (Complete Mini Roche, Roche, Madison WI); Phosphatase Inhibitor Cocktail (Sigma P5726)]. Lysate proteins were quantified using BCA (bicinchoninic acid) reagent (Pierce, Rockford, IL). […] Band densities were analyzed using Image J software (NIH, Bethesda, MD).
In general terms: In western blotting, separated proteins are transferred to a membrane and probed.

A further assay concerns Tsk−/+ hearts. Briefly: TUNEL assay, apoptotic cells in heart sections. It counts as in vivo, mouse. The note with it: 4F 1 mg/kg/d, sc; 4F-treated vs untreated Tsk−/+ hearts.
Excerpt: as §1
Hearts were harvested from mice, flash frozen and imbedded in OCT and cut into 10 µm sections. A TUNEL assay was performed on the sections using an ApopTag Plus Fluorescein labeled kit (Millipore, Billerica, MA, Cat# S7111) as per the manufacturer’s instructions. Briefly, the free 3'OH DNA termini were labeled in situ with an anti-digoxigenin antibody conjugated to fluorescein. Nuclei were stained with TO-PRO 3™ for 3 minutes (1 µg/ml, Invitrogen). Slides were mounted and analyzed by confocal microscopy (Nikon Eclipse TE2000-U, EZ-C1-2 10 software, Nikon, Melville, NY). Images were captured using 488 nm excitation for fluorescein and 633 nm for nuclear labeling. Intensity was measured using Nikon Element imaging software (Nikon).

Another assay relates to TNFα, Il-6, and Il-1. The conditions noted are these: cited from earlier work. The text has this: The purpose of this study was to investigate an alternative mechanism for 4F decreasing myocardial inflammation in Tsk^−/+mice. While our previous report focused on 4F’s ability to decrease inflammation by improving HDL function, the current study determines the effects of 4F on IRF5. We chose to investigate this potential mechanism for two important reasons. […] These inflammatory mediators are all gene products of IRF5 [9], [29]. Second, genetic links between IRF5 and SSc have been ide ...

The target in assay [2] is T1, IRF5 (Homo sapiens, UniProt Q13568).
T1 construct: purchased GenScript USA Inc
T1 sequence (Q13568 1-498): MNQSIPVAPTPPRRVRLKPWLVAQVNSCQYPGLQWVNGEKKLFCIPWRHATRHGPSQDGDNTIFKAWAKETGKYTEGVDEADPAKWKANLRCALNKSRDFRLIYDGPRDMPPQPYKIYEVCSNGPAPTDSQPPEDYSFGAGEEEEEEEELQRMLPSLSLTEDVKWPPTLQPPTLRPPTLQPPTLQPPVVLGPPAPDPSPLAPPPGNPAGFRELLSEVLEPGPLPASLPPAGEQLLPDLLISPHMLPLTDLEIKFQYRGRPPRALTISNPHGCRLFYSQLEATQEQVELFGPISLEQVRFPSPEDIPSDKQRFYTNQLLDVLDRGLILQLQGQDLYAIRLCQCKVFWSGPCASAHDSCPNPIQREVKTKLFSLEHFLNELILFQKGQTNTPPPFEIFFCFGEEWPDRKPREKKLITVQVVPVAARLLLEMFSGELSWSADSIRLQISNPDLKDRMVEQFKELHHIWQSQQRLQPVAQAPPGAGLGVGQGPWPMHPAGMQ
Briefly: Biolayer interferometry, 4F binding to B-IRF5. The note with it: B-IRF5 on SA biosensors, Octet Red 96. On the procedure:
Biolayer Interferometry (BLI): Protein-protein interactions were determined by BLI using an Octet Red 96™ interferometer (ForteBio, Inc, Menlo Park, CA). IRF5 was purchased (GenScript USA Inc) and labeled with biotin (cat no. 21329, Thermo Fisher Scientific, Rockford, IL) at a ratio of 1∶1, which is optimal for binding and packaging target proteins onto SA biosensors (MR18-0009, ForteBio) for studying protein-protein interactions. Biotin-labeled IRF5 (B-IRF5) was loaded onto SA-biosensors in PBS for 15 minutes to ensure saturation. The B-IRF5-loaded SA biosensors were incubated in PBS containing 4F (20 µg/ml) for 10 minutes and association measured by following increases in wavelength interference. Next the loaded biosensors were incubated in PBS alone for 10 minutes to measure dissociation of 4F from B-IRF5 by following decreases in wavelength interference.
In general terms: BLI is a label-free optical method that tracks binding on a fibre tip over time.

Another assay deals with Tsk−/+ mice. The note with it: 1 mg/kg/d, 6–8 weeks; cited from earlier work. The text has this:
One of the reasons that we felt 4F decreased inflammation by a mechanism(s) other than those mediated by HDL function, was the extreme differences in the histopathology of the hearts from untreated and 4F treated Tsk^−/+ mice. Untreated Tsk^−/+ hearts contained much higher levels of oxidized phospholipids, and autoantibodies against oxidized lipids than control hearts. In addition, untreated Tsk^−/+ hearts were also more fibrotic and expressed more angiostatin than control hearts, which likely contributed to the notable losses in angiogenic potential in the hearts of these mice. Wh ...

Entries after “also recorded” stand apart in the source; their conditions may differ.

In the case of Ac-DWFKAFYDKVAEKFKEAF-NH2 [4F], in the assay with IRF5 [1] (6 weeks, vs untreated Tsk−/+ hearts), the “reduction of IRF5 in Tsk−/+ hearts (band density)” value is reported as 78%. Moreover, the “myocardial IRF5 expression (in words)” value with IRF5 [1] (6–8 weeks, Tsk−/+ hearts) is “decrease IRF5 in Tsk^−/+ hearts; also recorded: markedly decreased IRF5 expression in Tsk^−/+ hearts; also recorded: markedly decrease IRF5 expression in Tsk^−/+ myocardium; also recorded: decreases myocardial expression of IRF5; also recorded: decreases IRF5 levels and activation in the Tsk^−/+ mouse hearts”. In the assay with Tsk−/+ hearts, the “TUNEL positive (apoptotic) cells” value was “decreased both measurements in Tsk^−/+ hearts; also recorded: significantly decreased the number of TUNEL positive cells in Tsk^−/+ hearts compared to the number in untreated Tsk^−/+ hearts but not to the level of TUNEL positive cells in C57Bl/6J hearts; also recorded: increased compared with the levels in the hearts of C57BL/6J mice and hearts from 4F-treated Tsk^−/+ mice; also recorded: fewer apoptotic cells than hearts from untreated Tsk^−/+ mice”. In the assay with TNFα, Il-6, and Il-1, the “expression of TNFα, Il-6, and Il-1” value was “decreases expression of TNFα, Il-6, and Il-1”. In addition, on IRF5 [2] (4F 20 µg/ml in PBS, 10 minutes), the “association with B-IRF5” value is on record as “rapidly associated”. In addition, the “association versus dissociation with IRF5” value on IRF5 [2] (4F 20 µg/ml) was “favoring association over dissociation; also recorded: favors association over dissociation; also recorded: rate of 4F association with IRF5 is faster than their rate of dissociation”. The “dissociation from B-IRF5” value at IRF5 [2] (PBS alone, 10 minutes) is “slow”. Also, the “oxidized phospholipids and autoantibodies against oxidized phospholipids in hearts” value with Tsk−/+ mice was “essentially eliminated oxidized phospholipids, and autoantibodies against oxidized phospholipids from the hearts”.
